{"source": "patent US10501498B2", "about": "(BGI SHENZHEN, priority 2014, dated 2019)", "tested_on": "HVA calcium channel", "format": "cell-based, rat", "data": [{"smiles": "COC(=O)C1=C(C)NC(C)=C(C(=O)OC)C1c1ccccc1[N+](=O)[O-]", "note": "[Nifedipine, reference compound]", "values": [{"measurement": "current after loading", "result": "−734.31", "unit": "pA"}, {"measurement": "inhibition rate", "setting": "10 µM", "result": 50.09, "unit": "%"}]}]}
